Source: patent publication US5958923A, “Use of thiazole and thiadiazole compounds” (BASF Aktiengesellschaft, priority 1994, dated 1999)

Legend:
human D3 receptor = target: T1, human D3 receptor (Homo sapiens, UniProt P35462); test: D3 binding assay (125I-iodosulpiride, cloned human D3 receptor-expressing CCL 1.3 mouse fibroblasts); conditions: for Ki: 0.1 nM 125 iodosulpiride, 60 min, 30° C., read-out: Receptor binding D3 125I-sulpiride Ki; for Selectivity Ki D2 /Ki D3: ratio D2 (3H-spiperone) to D3 (125I-sulpiride)
T1 construct: (Natick, Mass., USA); host or cells: CCL 1.3 mouse fibroblasts
Method: Cloned human D3 receptor-expressing CCL 1.3 mouse fibroblasts obtained from Res. Biochemicals Internat. One Strathmore Rd., Natick, Mass. 01760-2418 USA, were used for the binding studies.
The D3 -expressing cells were grown in RPMI-1640 containing 10% fetal calf serum (GIBCO No. 041-32400 N); 100 U/ml penicillin and 0.2% streptomycin (GIBCO BRL, Gaithersburg, Md., USA). After 48 h, the cells were washed with PBS and incubated with 0.05% trypsin-containing PBS for 5 min. Neutralization with medium was then carried out, and the cells were collected by centrifugation at 300×g. To lyze the cells, the pellet was briefly washed with lysis buffer (5 mM tris-HCl, pH 7.4, with 10% glycerol) and then incubated in a concentration of 10^7 cells/ml of lysis buffer at 4° C. for 30 min. The cells were centrifuged at 200×g for 10 min and the pellet was stored in liquid nitrogen.
For the D3 receptor-binding assay, the membranes were suspended in incubation buffer (50 mM tris-HCl, pH 7.4, with 120 mM NaCl, 5 mM KCl, 2 mM CaCl2, 2mM MgCl2, 10 μM quinolinol, 0.1% ascorbic acid and 0.1% BSA) in a concentration of about 10^6 cells/250 μl of assay mixture and incubated at 30° C. with 0.1 nM ^125 iodosulpiride in the presence and absence of test substance. The non-specific binding was determined using 10^-6 M spiperone.
After 60 min, the free and the bound radioligand was separated by filtration through GF/B glass fiber filters (Whatman, England) on a Skatron cell collector (Skatron, Lier, Norway), and the filters were washed with ice-cold tris-HCl buffer, pH 7.4. The radioactivity collected on the filters was quantified using a Packard 2200 CA liquid scintillation counter.
The Ki values were determined by non-linear regression analysis using the LIGAND program.

D2 receptor = target: T2, D2 receptor (Bos taurus, UniProt P20288); test: D2 binding assay (3H-spiperone, D2low, bovine nucleus caudatus membranes); conditions: 0.2 nmol/l 3H-spiperone (D2low), 25° C., 60 min
T2 construct: Nucleus caudatus was removed from bovine brain; from tissue; host or cells: bovine nucleus caudatus membranes
Method: a) Nucleus caudatus (bovine)
Nucleus caudatus was removed from bovine brain and washed with ice-cold 0.32 M sucrose solution. After determination of the weight, the material was comminuted and homogenized in 5-10 volumes of sucrose solution using a Potter-Evehjem [sic] homogenizer (500 rpm). The homogenate was centrifuged at 3,000×g for 15 minutes (4° C.), and the resulting supernatant was subjected to another 15-minute centrifugation at 40,000×g. The residue was then washed twice, by resuspension and centrifugation, with 50 mM tris-HCl, pH 7.4. The membranes were stored in liquid nitrogen until used.
a) ^3 H-Spiperone (D2low)
Nucleus caudatus membranes were taken up in incubation buffer (mM: tris-HCl 50, NaCl 120, KCl 5, MgCl2 1, CaCl2 2, pH 7.4). Various mixtures, each of 1 ml, were prepared:
Total binding: 400 μg of membranes+0.2 nmol/l ^3 H-spiperone (Du Pont de Nemours, NET-565).
Non-specific binding: as mixtures for total binding+10 μM (+)-butaclamol.
Test substance: as mixtures for total binding+increasing concentrations of test substance.
After incubation at 25° C. for 60 minutes, the mixtures were filtered through GF/B glass fibre filters (Whatman, England) on a Skatron cell collector (from Zinsser, Frankfurt), and the filters were washed with ice-cold 50 mM tris-HCl buffer, pH 7.4. The radioactivity collected on the filters was quantified using a Packard 2200 CA liquid scintillation counter.
The Ki values were determined by non-linear regression analysis using the LIGAND program or by conversion of the IC50 values using the formula of Cheng and Prusoff.

T2 sequence (P20288 whole entry): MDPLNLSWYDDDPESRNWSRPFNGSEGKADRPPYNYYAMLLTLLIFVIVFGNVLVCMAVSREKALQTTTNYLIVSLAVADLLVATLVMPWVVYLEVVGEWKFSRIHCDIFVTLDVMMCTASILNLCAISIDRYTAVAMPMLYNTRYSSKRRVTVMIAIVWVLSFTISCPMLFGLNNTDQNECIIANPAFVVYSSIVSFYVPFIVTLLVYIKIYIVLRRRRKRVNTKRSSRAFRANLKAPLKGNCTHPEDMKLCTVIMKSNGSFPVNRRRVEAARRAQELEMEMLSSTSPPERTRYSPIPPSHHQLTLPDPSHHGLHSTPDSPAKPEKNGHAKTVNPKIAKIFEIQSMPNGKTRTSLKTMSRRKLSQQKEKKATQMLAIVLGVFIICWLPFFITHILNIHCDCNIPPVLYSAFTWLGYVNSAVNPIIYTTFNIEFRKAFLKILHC
T1 sequence (P35462 whole entry): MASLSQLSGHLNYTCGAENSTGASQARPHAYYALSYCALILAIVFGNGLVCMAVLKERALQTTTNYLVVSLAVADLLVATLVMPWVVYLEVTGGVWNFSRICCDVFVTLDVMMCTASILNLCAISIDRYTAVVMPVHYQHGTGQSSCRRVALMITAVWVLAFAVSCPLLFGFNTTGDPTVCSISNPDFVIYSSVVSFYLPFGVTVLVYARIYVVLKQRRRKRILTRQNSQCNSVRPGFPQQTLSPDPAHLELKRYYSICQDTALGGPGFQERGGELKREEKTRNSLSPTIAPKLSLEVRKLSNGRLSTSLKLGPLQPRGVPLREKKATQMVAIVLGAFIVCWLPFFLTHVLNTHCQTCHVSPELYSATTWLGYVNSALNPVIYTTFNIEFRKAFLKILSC

## Nc1nnc(CCCCCCN2CCN(c3cccc(C(F)(F)F)c3)CC2)s1 [Example 2]
Human D3 receptor
  Ki: 1.4 nM
  Selectivity Ki D2 /Ki D3: 46
D2 receptor
  Ki: 65 nM

## Nc1nnc(SCCCN2CCN(c3cc(Cl)cc(Cl)c3)CC2)s1 [Example 13]
Human D3 receptor
  Ki: 0.6 nM
  Selectivity Ki D2 /Ki D3: 41
D2 receptor
  Ki: 25 nM

## CC(CSc1nnc(N)s1)CN1CCN(c2cccc(C(F)(F)F)c2)CC1 (stereo not drawn) [Example 16]
Human D3 receptor
  Ki: 10.9 nM
  Selectivity Ki D2 /Ki D3: 36
D2 receptor
  Ki: 402 nM

## Nc1nnc(SCCCN2CCN(c3cccc(C(F)(F)F)n3)CC2)s1 [Example 23]
Human D3 receptor
  Ki: 6.3 nM
  Selectivity Ki D2 /Ki D3: 31
D2 receptor
  Ki: 200 nM

## CC(C)c1cccc(N2CCN(CCCCCCCSc3nnc(N)s3)CC2)c1 [Example 49]
Human D3 receptor
  Ki: 6.5 nM
  Selectivity Ki D2 /Ki D3: 86
D2 receptor
  Ki: 560 nM

## N#Cc1cccc(N2CCN(CCCCCCCCSc3nnc(N)s3)CC2)c1 [Example 51]
Human D3 receptor
  Ki: 8.3 nM
  Selectivity Ki D2 /Ki D3: 62
D2 receptor
  Ki: 500 nM

## Nc1nnc(SCC=CCN2CCN(c3cccc(C(F)(F)F)n3)CC2)s1 [Example 53]
Human D3 receptor
  Ki: 2.95 nM
  Selectivity Ki D2 /Ki D3: 50
D2 receptor
  Ki: 145 nM

## Cc1cc(N2CCN(CCCSc3nnc(N)s3)CC2)nc(-n2cccc2)n1 [Example 56]
Human D3 receptor
  Ki: 27 nM
  Selectivity Ki D2 /Ki D3: 70
D2 receptor
  Ki: 3500 nM

## CC(C)(C)c1cc(N2CCN(CCCSc3nnc(N)s3)CC2)nc(C(C)(C)C)n1 [Example 58]
Human D3 receptor
  Ki: 1.7 nM
  Selectivity Ki D2 /Ki D3: 132
D2 receptor
  Ki: 225 nM
